Test results taken from ChEMBL document CHEMBL1125413 (J Med Chem, 1992).

Experiments:
[1] = target: T1, Sodium-dependent dopamine transporter (Rattus norvegicus, UniProt P23977); assay: Inhibition of [3H]cocaine binding to the dopamine transporter.
[2] = target: T1, Sodium-dependent dopamine transporter; assay: Inhibition of dopamine uptake at dopamine transporter.
[3] = target: T1, Sodium-dependent dopamine transporter; assay: Inhibition of [3H]mazindol binding to the dopamine transporter.
[4] = target: T1, Sodium-dependent dopamine transporter; assay: Potency for the inhibition of [3H]WIN-35428 binding to the dopamine transporter
[5] = target: T1, Sodium-dependent dopamine transporter
[6] = target: T1, Sodium-dependent dopamine transporter; assay: Inhibition of [3H]dopamine uptake at dopamine transporter.
[7] = target: T1, Sodium-dependent dopamine transporter; assay: Inhibition of [3H]WIN-35428 binding to the dopamine transporter
[8] = target: T1, Sodium-dependent dopamine transporter; assay: Inhibition of [3H]-dopamine uptake at dopamine transporter.
[9] = target: T1, Sodium-dependent dopamine transporter; assay: Inhibition of [3H]BTCP binding to the dopamine transporter.
[10] = target: T1, Sodium-dependent dopamine transporter; remark: listed apart in the source
[11] = target: T1, Sodium-dependent dopamine transporter; remark: listed apart in the source
[12] = target: T1, Sodium-dependent dopamine transporter; assay: Inhibition of [3H]GBR-12935 binding to the dopamine transporter.
[13] = target: T1, Sodium-dependent dopamine transporter; assay: Inhibition of [3H]dopamine uptake at the dopamine transporter.

T1 sequence (P23977 whole entry): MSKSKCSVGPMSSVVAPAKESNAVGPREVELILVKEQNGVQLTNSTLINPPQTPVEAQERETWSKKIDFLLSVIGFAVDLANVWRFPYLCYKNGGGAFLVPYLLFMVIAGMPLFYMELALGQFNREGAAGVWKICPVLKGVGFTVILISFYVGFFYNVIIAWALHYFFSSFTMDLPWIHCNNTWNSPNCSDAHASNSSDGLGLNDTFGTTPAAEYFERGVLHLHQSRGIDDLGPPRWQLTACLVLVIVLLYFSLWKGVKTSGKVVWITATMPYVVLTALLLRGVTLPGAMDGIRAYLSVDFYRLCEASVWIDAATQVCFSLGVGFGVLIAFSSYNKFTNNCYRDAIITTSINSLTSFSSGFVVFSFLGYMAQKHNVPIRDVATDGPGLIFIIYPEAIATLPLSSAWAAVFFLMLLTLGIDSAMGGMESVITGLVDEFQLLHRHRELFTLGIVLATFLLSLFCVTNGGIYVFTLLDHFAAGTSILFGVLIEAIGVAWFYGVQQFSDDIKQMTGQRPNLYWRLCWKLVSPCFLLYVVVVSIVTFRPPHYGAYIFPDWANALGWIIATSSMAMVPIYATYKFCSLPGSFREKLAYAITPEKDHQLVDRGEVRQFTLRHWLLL

For `COC(=O)[C@@H]1C2CC[C@H](C[C@@H]1c1ccc(N)cc1)N2C`, which IC50 [1] is on record?
The IC50 was 0.192 µM.

And the IC50 [2]?
Its IC50 is 0.557 µM.

`COC(=O)C1C2CC[C@H](C[C@@H]1OC(=O)c1ccc(N)cc1)N2C` (stereo partly specified) was tested. Which IC50 [3] did it give?
The IC50 was 3.04 µM.

And the IC50 [4]?
Its IC50 is 1.23 µM.

Which IC50 [3] does the source give for `COC(=O)C1C2CC[C@H](C[C@@H]1O)N2C` (stereo in doubt; 31) here?
Its IC50 is 87 µM.

What does the source list for `C=CCN1C2CC[C@@H]1C[C@H](OC(=O)c1ccccc1)C2C(=O)OC` (stereo partly specified)?
IC50 [5]: 1.02 µM; IC50 [6]: 2.5 µM

For `CN1C2CC[C@@H]1C[C@H](OC(=O)c1ccccc1)C2C(=O)OCCc1ccc(N)cc1` (stereo partly specified), which IC50 [7] is on record?
The IC50 was 0.071 µM.

For `COC(=O)C1C2CC[C@H](C[C@@H]1OC(=O)c1ccccc1)[N+]2(C)C` (stereo partly specified), which IC50 [8] is on record?
The IC50 was 0.014 µM.

What about the IC50 [3] of the same molecule?
Its IC50 is 20 µM.

And the IC50 [9]?
Its IC50 is 0.008 µM.

And the IC50 [4]?
The IC50 was 10.7 µM.

`CC[C@H](C)[C@H](NC(=O)[C@@H](NC[C@H](CC(C)C)NC(=O)[C@H](Cc1c[nH]cn1)NC(=O)[C@H](Cc1ccccc1)NC(=O)[C@]1(C)CCCN1C(=O)OC(C)(C)C)C(C)C)C(=O)NCc1ccccn1` was tested. Which IC50 [8] did it give?
Its IC50 is 0.029 µM.

What about the IC50 [3] of the same molecule?
The IC50 was 0.178 µM.

And the IC50 [10]?
The IC50 was 0.093 µM.

What about the IC50 [6] of the same molecule?
The IC50 was 2.48 µM.

How did the IC50 [6] turn out when `COC(=O)C1C2CC[C@H](C[C@@H]1OC(=O)c1ccc(N=[N+]=[N-])c(I)c1)N2C` (stereo partly specified) was run?
Its IC50 is 0.8 µM.

For `c1ccc2sc(C3(N4CCCCC4)CCCCC3)cc2c1`, which IC50 [9] is on record?
Its IC50 is 0.005 µM.

And the IC50 [10]?
Its IC50 is 0.02 µM.

What about the IC50 [11] of the same molecule?
Its IC50 is 0.002 µM.

And the IC50 [5]?
Its IC50 is 0.042 µM.

Which results are given for `COC(=O)[C@@H]1C2CC[C@H](C[C@@H]1c1ccccc1)N2C` (stereo in doubt; 47)?
IC50 [3]: 0.119 µM; IC50 [5]: 0.044 µM; IC50 [6]: 0.96 µM

What does the source list for `COC(=O)[C@@H]1C2CC[C@H](C[C@@H]1c1ccccc1)N2C` (stereo in doubt; 50)?
IC50 [5]: 32 µM; IC50 [6]: 200 µM

What does the source list for `COC(=O)C1C2CC[C@H](C[C@H]1c1ccc(C)cc1)N2C` (stereo partly specified)?
IC50 [3]: 0.005 µM; IC50 [4]: 0.002 µM; IC50 [6]: 0.11 µM

`CN1C2CC[C@@H]1C[C@H](c1ccc(Cl)cc1)C2C(=O)OCCc1ccc(N=[N+]=[N-])c(I)c1` (stereo partly specified) was tested. Which IC50 [6] did it give?
Its IC50 is 1.4 µM.

With `O=C(O[C@H]1C[C@H]2CCC(N2)C1C(=O)O)c1ccccc1` (stereo partly specified) as the molecule, how does the IC50 [1] read?
Its IC50 is 78.2 µM.

What about the IC50 [3] of the same molecule?
The IC50 was 342 µM.

How did the IC50 [3] turn out when `COC(=O)C1C2CC[C@H](C[C@@H]1c1ccccc1)N2` (stereo partly specified) was run?
Its IC50 is 0.36 µM.

And the IC50 [5]?
Its IC50 is 0.086 µM.

What does the source list for `COC(=O)[C@@H]1C2CC[C@H](C[C@@H]1c1ccccc1)N2C` (stereo in doubt; 68)?
IC50 [7]: 2.9 µM; IC50 [1]: 2.6 µM; IC50 [3]: 385 µM

Which IC50 [10] does the source give for `COC(=O)C1C2CC[C@H](C[C@@H]1OC(=O)c1ccc(N=C=S)cc1)N2C` (stereo partly specified) here?
Its IC50 is 0.276 µM.

What about the IC50 [4] of the same molecule?
The IC50 was 1.05 µM.

And the IC50 [6]?
The IC50 was 2.78 µM.

Which results are given for `COC(=O)[C@@H]1C2CC[C@H](C[C@@H]1c1ccc(N=[N+]=[N-])cc1)N2C`?
IC50 [7]: 0.002 µM; IC50 [2]: 0.2 µM

Which results are given for `COC(=O)C1C2CC[C@H](C[C@@H]1OC(=O)c1cccc(N=C=S)c1)N2C` (stereo partly specified)?
IC50 [10]: 0.072 µM; IC50 [4]: 1.46 µM

With `COC(=O)C1C2CC[C@H](C[C@@H]1O)N2C` (stereo in doubt; 18) as the molecule, how does the IC50 [3] read?
The IC50 was 62 µM.

With `COC(=O)C1C2CC[C@H](C[C@@H]1c1ccc(F)cc1)N2` (stereo partly specified) as the molecule, how does the IC50 [5] read?
The IC50 was 0.036 µM.

For `COC(=O)C1C2CC[C@H](C[C@@H]1OC(=O)Nc1cccc([N+](=O)[O-])c1)N2C` (stereo partly specified), which IC50 [10] is on record?
Its IC50 is 0.33 µM.

What about the IC50 [5] of the same molecule?
The IC50 was 0.037 µM.

And the IC50 [6]?
The IC50 was 0.178 µM.

Which IC50 [5] does the source give for `COC(=O)C1C2CC[C@H](C[C@@H]1OC(=O)c1ccccc1)N2` (stereo in doubt; 23) here?
The IC50 was 0.27 µM.

And the IC50 [6]?
The IC50 was 2.5 µM.

For `COC(=O)C1C2CC[C@H](C[C@@H]1OC(=O)c1ccccc1)N2` (stereo in doubt; 22), which IC50 [3] is on record?
The IC50 was 1.21 µM.

What about the IC50 [10] of the same molecule?
Its IC50 is 0.092 µM.

What about the IC50 [4] of the same molecule?
The IC50 was 0.303 µM.

What about the IC50 [5] of the same molecule?
The IC50 was 0.414 µM.

What does the source list for `COC(=O)[C@@H]1C2CC[C@H](C[C@@H]1c1ccccc1)N2C` (stereo in doubt; 70)?
IC50 [1]: 1.2 µM; IC50 [2]: 2.1 µM

With `COC(=O)C1C2CC[C@H](C[C@@H]1c1ccc(Cl)cc1)N2C` (stereo partly specified) as the molecule, how does the IC50 [7] read?
The IC50 was 0.001 µM.

What about the IC50 [3] of the same molecule?
The IC50 was 0.002 µM.

And the IC50 [2]?
Its IC50 is 0.03 µM.

With `CN1C2CC[C@@H]1C[C@H](OC(=O)c1ccc(N)cc1)C2C(=O)O` (stereo partly specified) as the molecule, how does the IC50 [8] read?
The IC50 was 0.035 µM.

And the IC50 [3]?
Its IC50 is 4.51 µM.

What about the IC50 [10] of the same molecule?
Its IC50 is 0.009 µM.

What about the IC50 [4] of the same molecule?
The IC50 was 8.25 µM.

How did the IC50 [8] turn out when `CNC(=O)C1C2CC[C@H](C[C@@H]1OC(=O)c1ccccc1)N2C` (stereo partly specified) was run?
The IC50 was 2 µM.

For `COC(=O)[C@@H]1C2CC[C@H](C[C@@H]1c1ccccc1)N2C`, which IC50 [4] is on record?
Its IC50 is 0.561 µM.

`COC(=O)C1C2CC[C@H](C[C@@H]1c1ccc(I)cc1)N2C` (stereo partly specified) was tested. Which IC50 [4] did it give?
The IC50 was 0.001 µM.

`CN1C2CC[C@@H]1C[C@H](O)C2C(=O)O` (stereo partly specified) was tested. Which IC50 [3] did it give?
Its IC50 is over 1000 µM.

And the IC50 [10]?
Its IC50 is 0.0047 µM.

Which results are given for `COC(=O)[C@@H]1C2CC[C@H](C[C@@H]1c1ccccc1)N2C` (stereo in doubt; 49)?
IC50 [5]: 0.022 µM; IC50 [6]: 1.33 µM

`COC(=O)C1C2CC[C@H](C[C@@H]1OC(=O)c1ccccc1)N2Cc1ccccc1` (stereo partly specified) was tested. Which IC50 [12] did it give?
The IC50 was 0.25 µM.

What about the IC50 [7] of the same molecule?
Its IC50 is 0.668 µM.

What about the IC50 [1] of the same molecule?
Its IC50 is 0.02 µM.

What about the IC50 [9] of the same molecule?
Its IC50 is 0.14 µM.

And the IC50 [6]?
The IC50 was 0.077 µM.

Which IC50 [1] does the source give for `CN1[C@@H]2CC[C@H]1C[C@H](OC(=O)c1ccccc1)C2` here?
Its IC50 is 3.3 µM.

What about the IC50 [3] of the same molecule?
Its IC50 is 15 µM.

What about the IC50 [2] of the same molecule?
The IC50 was 186 µM.

And the IC50 [5]?
Its IC50 is 23 µM.

And the IC50 [13]?
Its IC50 is 110 µM.
